In article PMC3242765, “Inhibitors of Alphavirus Entry and Replication Identified with a Stable Chikungunya Replicon Cell Line and Virus-Based Assays” (PLoS ONE, 2011):
Where a name gives a salt, the structure may show the parent alone.

What was measured:
CHIKV replicon = assay: microbe, parasite or virus in culture; assay type: cell-based, Chikungunya virus (CHIKV)

Row | Compound | SFV replication % left (surviving fraction, remaining percentage of SFV replication) (SFV-Rluc) [%] | CHIKV replicon % left (CHIKV replicon) [%]
1 | COc1ccc2ccc(=O)oc2c1 [Herniarin] | 53.2 | 102.2
2 | COc1ccc([C@@H]2CC(=O)c3c(O)cc(O[C@@H]4O[C@H](CO[C@@H]5O[C@@H](C)[C@H](O)[C@@H](O)[C@H]5O)[C@@H](O)[C@H](O)[C@H]4O)cc3O2)cc1O [Hesperidin] | 77.7 | 102.2
3 | CN1C(=O)NC(=O)C(C)(C2=CCCCC2)C1=O (centres unmarked) [Hexobarbital] | 121.3 | 98.2
4 | Oc1ccc(C(O)CNCCCCCCNCC(O)c2ccc(O)c(O)c2)cc1O (centres unmarked) [Hexoprenaline] | 124.9 | 79.1
5 | NCCCS(=O)(=O)O [Homotaurine] | 118.7 | 89.2
6 | NS(=O)(=O)c1cc2c(cc1Cl)NCNS2(=O)=O [Hydrochlorothiazide] | 121.2 | 70.2
7 | CC(=O)OCC(=O)[C@@]1(O)CC[C@H]2[C@@H]3CCC4=CC(=O)CC[C@]4(C)[C@H]3[C@@H](O)C[C@@]21C [Hydrocortisone acetate] | 116.8 | 72.1
8 | Oc1ccc(O)cc1 [Hydroquinone] | 16.9 | 72.9
9 | CCN(CCO)CCCC(C)Nc1ccnc2cc(Cl)ccc12 (centres unmarked) [Hydroxychloroquine sulfate] | 128.9 | 100.1
10 | OCCOCCN1CCN(C(c2ccccc2)c2ccc(Cl)cc2)CC1 (centres unmarked) [Hydroxyzine hydrochloride] | 98.3 | 100.5
11 | CC(C)(C)NC[C@H](O)COc1cccc2c1CCCC2=O [I-Bunolol] | 59.6 | 105.4
12 | CC(C)Cc1ccc(CC(=O)O)cc1 [Ibufenac] | 102.2 | 78.9
13 | CC(C)Cc1ccc(C(C)C(=O)O)cc1 (centres unmarked) [Ibuprofen] | 92.8 | 100.5
14 | O[C@H]1[C@H](O)[C@@H](O)[C@H](O)[C@@H](O)[C@H]1O [Inositol] | 106.0 | 89.5
15 | CCC(NC(C)C)C(O)c1ccc(O)c(O)c1 (centres unmarked) [Isoetharine] | 90.7 | 100.4
16 | CC(C)OC(=O)c1cc(O)c(O)c(O)c1 [Isopropyl gallate] | 124.0 | 79.3
17 | COc1cc(-c2oc3cc(O)cc(O)c3c(=O)c2O)ccc1O [Isorhamnetin] | 28.9 | 19.3
18 | COc1cc2oc(=O)ccc2cc1O [Isoscopoletin] | 120.6 | 99.4
19 | O=c1c(O)c(-c2ccc(O)cc2)oc2cc(O)cc(O)c12 [Kaempferol] | 2.9 | 11.5
20 | COc1c2occc2c(OC)c2c(=O)cc(C)oc12 [Khellin] | 120.6 | 95.4
21 | C[C@](N)(Cc1ccc(O)c(O)c1)C(=O)O [L-Methyldopa] | 99.1 | 70.2
22 | CNC[C@H](O)c1cccc(O)c1.Cl [L-Phenylephrine hydrochloride] | 85.1 | 104.1
23 | O=C1O[C@H]([C@@H](O)CO)C(O)=C1O [L-ascorbic acid] | 81.4 | 106.1
24 | CC(CCc1ccccc1)NCC(O)c1ccc(O)c(C(N)=O)c1 (centres unmarked) [Labetalol hydrochloride] | 72.5 | 100.1
25 | CCCCCCCCCCCCOC(=O)c1cc(O)c(O)c(O)c1 [Lauryl gallate] | 12.3 | 6.1
26 | Oc1cc(O)c2c(c1)OC(c1ccc(O)c(O)c1)C(O)C2O (centres unmarked) [Leucocyanidin] | 136.3 | 84.1
27 | O=C1Nc2ccc(Cl)cc2C(c2ccccc2Cl)=NC1O (centres unmarked) [Lorazepam] | 98.2 | 104.9
28 | O=c1cc(-c2ccc(O)c(O)c2)oc2cc(O[C@@H]3O[C@H](CO)[C@@H](O)[C@H](O)[C@H]3O)cc(O)c12 [Luteolin-7-glucoside] | 17.8 | 54.4

Row | Compound | SFV replication % left (surviving fraction, remaining percentage of SFV replication) (SFV-Rluc) [%] | CHIKV replicon % left (CHIKV replicon) [%]
29 | O=c1cc(-c2ccc(O)c(O)c2)oc2cc(O)cc(O)c12 [Luteolin] | 71.3 | 95.0
30 | COc1cc(-c2[o+]c3cc(O)cc(O[C@@H]4O[C@H](CO)[C@@H](O)[C@H](O)[C@H]4O)c3cc2O[C@@H]2O[C@H](CO)[C@@H](O)[C@H](O)[C@H]2O)cc(OC)c1O.[Cl-] [Malvin chloride] | 15.4 | 72.3
31 | CN1CCN=C(c2ccccc2)c2cc(Cl)ccc21 [Medazepam] | 87.5 | 101.7
32 | Cc1cccc(Nc2ccccc2C(=O)O)c1C [Mefenamic acid] | 103.5 | 99.4
33 | CC1=CC(=O)c2ccccc2C1=O [Menadione [2-Methyl-1,4-naphtoquinone]] | 28.3 | 31.1
34 | CNC(C)(C)Cc1ccccc1 [Mephentermine sulfate] | 81.8 | 70.1
35 | Cc1cccc(C)c1NC(=O)C1CCCCN1C (centres unmarked) [Mepivacaine hydrochloride] | 74.9 | 62.2
36 | CN1CCCCC1CCN1c2ccccc2Sc2ccc([S+](C)[O-])cc21 (centres unmarked) [Mesoridazine besylate] | 93.8 | 100.5
37 | Cc1c(N(C)CS(=O)(=O)[O-])c(=O)n(-c2ccccc2)n1C.[Na+] [Metamizol sodium] | 86.0 | 105.1
38 | C[C@H](N)[C@H](O)c1cccc(O)c1.O=C(O)C(O)C(O)C(=O)O [Metaraminol bitartrate salt] | 96.5 | 69.1
39 | COc1ccc(OC)c(C(O)C(C)N)c1 (centres unmarked) [Methoxamine hydrochloride] | 98.4 | 48.2
40 | COC(=O)c1cc(O)c(O)c(O)c1 [Methyl gallate] | 67.8 | 100.7
41 | COC(=O)c1ccc(O)cc1 [Methyl p-hydroxybenzoate] | 69.3 | 100.4
42 | C[N+]1(C)[C@@H]2CC[C@H]1C[C@@H](OC(=O)C(CO)c1ccccc1)C2 (some centres unmarked) [Methylatropine bromide] | 70.9 | 54.9
43 | Cc1cc(=O)oc2cc(O)ccc12 [Methylumbelliferone] | 12.0 | 21.1
44 | CC(=O)Oc1c(C)cc(OCC(O)CNC(C)C)c(C)c1C (centres unmarked) [Metipranolol] | 46.2 | 100.5
45 | COCCc1ccc(OCC(O)CNC(C)C)cc1 (centres unmarked) [Metoprolol tartrate] | 65.7 | 78.2
46 | Cc1ncc([N+](=O)[O-])n1CCO [Metronidazole] | 69.2 | 89.2
47 | O.O.O=c1c(O)c(-c2ccc(O)cc2O)oc2cc(O)cc(O)c12 [Morin dihydrate] | 82.9 | 102.6
48 | O=c1c(O)c(-c2cc(O)c(O)c(O)c2)oc2cc(O)cc(O)c12 [Myricetin] | 2.0 | 49.1
49 | CC(=O)Nc1ccc(S(N)(=O)=O)cc1 [N-Acetylsulfanilamide] | 63.2 | 104.1
50 | CC(CN1c2ccccc2Sc2ccccc21)[N+](C)(C)CCO (centres unmarked) [N-Hydroxyethylpromethazine chloride] | 102.2 | 85.9
51 | Cc1ccc(C(=O)NS(=O)(=O)c2ccc(N)cc2)cc1C [N-Sulfanilyl-3,4-xylamide] | 72.0 | 100.7
52 | CC(C)(C)NCC(O)COc1cccc2c1CC(O)C(O)C2 (centres unmarked) [Nadolol] | 60.5 | 63.3
53 | CCn1cc(C(=O)O)c(=O)c2ccc(C)nc21 [Nalidixic acid] | 80.4 | 100.4
54 | COc1ccc2cc([C@H](C)C(=O)O)ccc2c1 [Naproxen] | 92.7 | 89.2
55 | COc1ccc(C(=O)Cc2c(CCN(C)C)cc3c(c2OC)OCO3)c(C(=O)O)c1OC [Narceine] | 118.3 | 70.7
